For test [1], the species on record is Homo sapiens. Put plainly: Binding affinity to duplex DNA1(AP)/DNA2(T) (unknown origin) assessed as beta-elimination product formation at 10 uM pH 7 by gel electrophoresis.
Test [2] is filed under the species Homo sapiens. Put plainly: Binding affinity to duplex DNA1(AP)/DNA2(G) (unknown origin) assessed as beta-elimination product formation at 10 uM pH 7 by gel electrophoresis.
Test [3] is filed under the species Homo sapiens. In words: Binding affinity to duplex DNA1(AP)/DNA2(C) (unknown origin) assessed as beta-elimination product formation by HPLC analysis.
The species named for test [4] is Homo sapiens. In words: Binding affinity to duplex DNA1(AP)/DNA2(C) (unknown origin) assessed as beta-elimination product formation after 1 hr at pH 8 by gel electrophoresis.
The species named for test [5] is Homo sapiens. In words: Binding affinity to duplex DNA1(AP)/DNA2(C) (unknown origin) assessed as beta-elimination product formation at 10 uM pH 7 by gel electrophoresis.
For test [6], the species on record is Homo sapiens. In words: Binding affinity to duplex DNA1(AP)/DNA2(A) (unknown origin) assessed as beta-elimination product formation at 10 uM pH 7 by gel electrophoresis.
For test [7], the species on record is Homo sapiens. Put plainly: Binding affinity to duplex DNA1(AP)/DNA2(C) (unknown origin) assessed as APE1 catalyzed beta-elimination product formation by gel electrophoresis.
For test [8], the species on record is Homo sapiens. In words: Binding affinity to duplex DNA1(AP)/DNA2(G) (unknown origin) assessed as APE1 catalyzed beta-elimination product formation by gel electrophoresis.
The species entered for test [9] is Homo sapiens. Put plainly: Binding affinity to duplex DNA1(AP)/DNA2(A) (unknown origin) assessed as APE1 catalyzed beta-elimination product formation by gel electrophoresis.
For test [10], the species on record is Homo sapiens. In words: Binding affinity to duplex DNA1(AP)/DNA2(T) (unknown origin) assessed as APE1 catalyzed beta-elimination product formation by gel electrophoresis.

Structures are written as SMILES. Active and inactive are the calls of the source. No cut-off for these calls is given here.

With `NCCCNCCCNCCCn1cnc2c(=O)[nH]c(N)nc21`, the result in the test listed under Homo sapiens [1], in the test listed under Homo sapiens [2] and in the test filed under Homo sapiens [6] was inactive. The outcome in the test listed under Homo sapiens [3], in the test filed under Homo sapiens [4], in the test filed under Homo sapiens [5] and in the test listed under Homo sapiens [7] was Active.
For the molecule `NCCCNCCCNCCCn1ccc(N)nc1=O`, the result in the test listed under Homo sapiens [8] was inactive.
For the molecule `NCCCNCCCN`, the outcome in the test listed under Homo sapiens [7] was inactive.
As to `Cc1cn(CCCNCCCNCCCN)c(=O)[nH]c1=O`, the result in the test listed under Homo sapiens [9] was inactive.
As to `NCCCNCCCNCCCn1cnc2c(N)ncnc21`, the outcome in the test listed under Homo sapiens [1], in the test filed under Homo sapiens [2], in the test listed under Homo sapiens [5], in the test filed under Homo sapiens [6] and in the test filed under Homo sapiens [10] was Active.

The values above are taken from ChEMBL document CHEMBL3751679, “DNA cleavage at the AP site via β-elimination mediated by the AP site-binding ligands” (Bioorg Med Chem, 2016).
